According to US20080045504A1, “Benzonitrile Derivatives to Treat Musculoskeletal Frailty” (PFIZER PRODUCTS INC., priority 2004, published 2008):

Key:
[1] = biological target: T1, recombinant human androgen receptor (hAR) (Homo sapiens, UniProt P10275); experiment: Human androgen receptor binding analysis (3H-DHT competitive binding)
T1 construct: made in house; host or cells: baculovirus/Sf9 insect cells (crude extract)
T1 sequence (P10275 1-920): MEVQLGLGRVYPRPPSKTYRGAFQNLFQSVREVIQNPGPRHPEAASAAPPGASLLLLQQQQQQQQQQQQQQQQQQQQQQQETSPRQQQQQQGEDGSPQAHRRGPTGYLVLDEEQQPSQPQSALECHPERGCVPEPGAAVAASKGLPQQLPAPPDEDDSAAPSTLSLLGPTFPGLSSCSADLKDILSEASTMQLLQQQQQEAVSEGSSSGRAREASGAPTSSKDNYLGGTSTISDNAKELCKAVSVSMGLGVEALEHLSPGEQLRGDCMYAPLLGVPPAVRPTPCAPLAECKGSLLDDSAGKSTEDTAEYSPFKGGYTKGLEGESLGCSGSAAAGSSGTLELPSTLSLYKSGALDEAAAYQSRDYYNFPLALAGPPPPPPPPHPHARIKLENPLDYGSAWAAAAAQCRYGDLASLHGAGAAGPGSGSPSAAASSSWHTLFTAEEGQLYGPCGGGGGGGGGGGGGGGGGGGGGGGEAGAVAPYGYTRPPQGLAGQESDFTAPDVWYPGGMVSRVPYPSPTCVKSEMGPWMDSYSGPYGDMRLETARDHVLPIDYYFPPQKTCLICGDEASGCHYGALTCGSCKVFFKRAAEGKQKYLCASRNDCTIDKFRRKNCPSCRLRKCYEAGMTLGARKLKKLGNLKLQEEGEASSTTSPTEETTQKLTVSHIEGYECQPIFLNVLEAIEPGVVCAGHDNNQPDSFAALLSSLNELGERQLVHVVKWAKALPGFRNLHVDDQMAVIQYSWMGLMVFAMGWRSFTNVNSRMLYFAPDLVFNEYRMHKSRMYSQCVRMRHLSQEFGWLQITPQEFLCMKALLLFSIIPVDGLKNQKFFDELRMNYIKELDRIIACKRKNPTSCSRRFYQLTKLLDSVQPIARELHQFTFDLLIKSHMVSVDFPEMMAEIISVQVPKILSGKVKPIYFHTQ
Description: The following is a brief description of the assay that determines the affinity of a compound for the recombinant human androgen receptor (hAR). Competitive binding analysis is performed on baculovirus/Sf9 generated hAR extracts in the presence or absence of differing concentrations of drug and a fixed concentration of ^3H-dihydrotestosterone (^3H-DHT) as tracer. This binding assay method is a modification of a protocol previously described (Chang, et. al. J. Steroid Biochem. 20(1):11-17 1984). Briefly, progressively decreasing concentrations of compounds are incubated in the presence of hAR extract (Chang et al. P.N.A.S. Vol. 89, pp. 5546-5950, 1992), hydroxylapatite and 1 nM ^3H-DHT for one hour at 4° C. Subsequently, the binding reactions are washed three times to completely remove excess unbound ^3H-DHT. hAR bound ^3H-DHT levels are determined in the presence of compounds (=competitive binding) and compared to levels bound when no competitor is present (=maximum binding). Compound binding affinity to the hAR is expressed as the concentration of compound at which one half of the maximum binding is inhibited (the IC50).

[2] = tested on: orchiectomized (ORX) immature male rat; experiment: Orchiectomized immature rat assay (levator ani and ventral prostate weights); assay type: in vivo, Sprague Dawley rat; details: 4 days, TP 10 mg/kg = 100%, ORX control = 0%; for % TP Control LA: levator ani weight; for % TP Control VP: ventral prostate weight
Description: All animal studies were performed in accordance with the Guide for Care and Use of Laboratory Animals (National Research Council, 1996). Twenty-one day old male Sprague Dawley rats were acquired from Taconic, Inc, Germantown, N.Y. Rats were housed five per cage at standard vivarium conditions ([…], 12-h light/dark cycle), with normal chow diet and tap water ad libitum. At 25 days of age, the rats underwent bilateral orchiectomy surgery (ORX) after sedation with 3-5% Isoflurane. Following the surgery, the animals were treated immediately by daily subcutaneous (s.c.) injection with vehicle (sesame oil), testosterone propionate (TP, 10 mg/kg) and test compounds. The dosage of test compound administered is in mg/kg. At the end of the 4 days of administrations, the animals were sacrificed in a carbon dioxide chamber, the ventral prostate (VP) and levator ani muscle complex (LA) were removed and weighed. The increase in the weights of VP or LA by TP was expressed as 100%, and the ORX control as baseline, 0%; the response of the test compounds was calculated as the percentage increase compared to TP.

[3] = tested on: aged intact or orchidectomized (ORX) male rat; experiment: Effect on body weight, body composition and bone density in the aged intact and orchidectomized male rat; assay type: in vivo, SD rat
Description: The purpose of this study is to test the effects of test compound in aged intact or orchidectomized (ORX) male rat model.
Male SD rats at 11 months of age were sham-operated or ORX. One day post-surgery they were treated with test compound by subcutaneous injections (s.c.) at the average dose of 3 or 10 mg/kg per day for 8 weeks. The subcutaneous injections were given 2 times (Tuesday and Friday) per week with the first injection (Tuesday) at 9 or 30 mg/kg (in sesame oil, total 0.3 ml), and the second injection (Friday) at 12 or 40 mg/kg (in sesame oil, total 0.4 ml). All rats were injected subcutaneously with calcein at 10 mg/kg on 12 and 2 days before necropsy.

[4] = Group II (sham, 3 mg/kg/d) compared to Group I (sham + vehicle)
[5] = sham and ORX rats, 3 or 10 mg/kg/d s.c. for 8 weeks
[6] = sham and ORX rats, 3 or 10 mg/kg/d s.c. for 8 weeks, dose dependant, except Group II

## CC[C@H]1CCCCN1c1ccc(C#N)c(C(F)(F)F)c1 [Example 1, 4-(2-(S)-Ethyl-piperidin-1-yl)-2-trifluoromethyl-benzonitrile]
[1]
  IC50: 5.21 nM
[2]; 3 mg/kg s.c.
  % TP Control LA: 53%
  % TP Control VP: 11%
[2]; 10 mg/kg s.c.
  % TP Control LA: 93%
  % TP Control VP: 30%
[2]; 30 mg/kg s.c.
  % TP Control LA: 100%
  % TP Control VP: 33%
[3]; [4]
  fat body mass: slight increase
  lean body mass: slight decrease
[3]; Group II sham rats (3 mg/kg/d)
  prostate weight: did not increase
[3]; Group III (sham, 10 mg/kg/d) compared to Group I
  prostate weight: slight increase
[3]; ORX rats, 3 or 10 mg/kg/d, dose dependent
  prostate weight: increased prostate weight in ORX rats to the level of sham controls
[3]; [5]
  levitor anni weight: increased
  total density in the femoral shaft (FS): increased
  trabecular density in the distal femoral metaphysis (DFM): increased
[3]; [6]
  fat body mass: decreased
  lean body mass: increased
